Laboratory results as given in the supplement of paper PMC13380429.

Tests used:
Settings in all cases: 72 h
Caco-2 [1] = assay: drug sensitivity score (DSS) for viability; higher = more toxic; extreme values may be limits of the assay
Calu-3 [2] = assay: as above
Vero E6 [3] = assay: as above
HepG2 [4] = assay: as above
U2OS [5] = assay: as above
Caco-2 [6] = assay: cell viability relative to DMSO; higher = less toxic
Calu-3 [7] = assay: as above
Vero E6 [8] = assay: as above
HepG2 [9] = assay: as above
U2OS [10] = assay: as above
Caco-2 [11] = assay: relative viability EC50 (midpoint between 100% and the lowest measured viability); higher = less toxic
Calu-3 [12] = assay: as above
Vero E6 [13] = assay: as above
HepG2 [14] = assay: as above
U2OS [15] = assay: as above

Row | Compound | drug sensitivity score (Caco-2 [1]) | drug sensitivity score (Calu-3 [2]) | drug sensitivity score (Vero E6 [3]) | drug sensitivity score (HepG2 [4]) | drug sensitivity score (U2OS [5]) | cell viability (Caco-2 [6]; 1 nM) | cell viability (Caco-2 [6]; 10 nM) | cell viability (Caco-2 [6]; 100 nM) | cell viability (Caco-2 [6]; 1000 nM) | cell viability (Caco-2 [6]; 10000 nM) | cell viability (Calu-3 [7]; 1 nM) | cell viability (Calu-3 [7]; 10 nM) | cell viability (Calu-3 [7]; 100 nM) | cell viability (Calu-3 [7]; 1000 nM) | cell viability (Calu-3 [7]; 10000 nM) | cell viability (Vero E6 [8]; 1 nM) | cell viability (Vero E6 [8]; 10 nM) | cell viability (Vero E6 [8]; 100 nM) | cell viability (Vero E6 [8]; 1000 nM) | cell viability (Vero E6 [8]; 10000 nM) | cell viability (HepG2 [9]; 1 nM) | cell viability (HepG2 [9]; 10 nM) | cell viability (HepG2 [9]; 100 nM) | cell viability (HepG2 [9]; 1000 nM) | cell viability (HepG2 [9]; 10000 nM) | cell viability (U2OS [10]; 1 nM) | cell viability (U2OS [10]; 10 nM) | cell viability (U2OS [10]; 100 nM) | cell viability (U2OS [10]; 1000 nM) | cell viability (U2OS [10]; 10000 nM) | relative viability EC50 (Caco-2 [11]) | relative viability EC50 (Calu-3 [12]) | relative viability EC50 (Vero E6 [13]) | relative viability EC50 (HepG2 [14]) | relative viability EC50 (U2OS [15])
1 | CN1CCCCC1CCN1c2ccccc2Sc2ccc([S+](C)[O-])cc21 (stereo not given) [mesoridazine] | 0 | 0 | 0 | 0 | 0 | 93.4% | 93.9% | 90.5% | 97% | 110% | 101% | 108% | 97.7% | 105% | 120% | 93.2% | 96.7% | 91% | 90.1% | 96.5% | 108% | 93.2% | 120% | 106% | 111% | 95.3% | 101% | 96.7% | 97.5% | 101% | > 10 µM | > 10 µM | > 10 µM | > 10 µM | > 10 µM
2 | COc1ccc(Nc2nccc(NCCO)n2)cc1 [cardiogenol-C] | 0 | 0 | 0 | 0 | 0 | 105% | 87.7% | 101% | 95.8% | 103% | 94.4% | 92.7% | 92.5% | 92.5% | 102% | 94.4% | 105% | 94.8% | 104% | 100% | 93.4% | 93.1% | 93.4% | 108% | 102% | 97.7% | 97.2% | 102% | 96.1% | 98.2% | > 10 µM | > 10 µM | > 10 µM | > 10 µM | > 10 µM
3 | CC(C)=CCC/C(C)=C/CC/C(C)=C/CSc1ccccc1C(N)=O [farnesyl-thiosalicylic-acid-amide] | 0 | 0 | 0 | 0.1 | 0 | 104% | 116% | 95% | 116% | 104% | 106% | 92.4% | 108% | 105% | 111% | 89.8% | 101% | 92.8% | 87.1% | 99.7% | 100% | 105% | 96.6% | 108% | 85.7% | 98.9% | 100% | 105% | 98.3% | 102% | > 10 µM | > 10 µM | > 10 µM | > 10 µM | > 10 µM
4 | Clc1ccc(N2CCN(Cc3c[nH]c4ncccc34)CC2)cc1 | 0.1 | 0 | 0 | 1.1 | 0 | 103% | 98.1% | 95.5% | 93.5% | 87% | 88.6% | 99.1% | 101% | 92.9% | 87.9% | 94.9% | 102% | 97.4% | 96.2% | 102% | 102% | 93.8% | 97.1% | 93.6% | 79.8% | 96.1% | 98.2% | 95.9% | 102% | 92.2% | > 10 µM | > 10 µM | > 10 µM | > 10 µM | > 10 µM
